In patent US20120142771A1, “BIPHENYLACETAMIDE DERIVATIVE” (Dainippon Sumitomo Pharma Co., Ltd., priority 2008, published 2012):

How the values were obtained:
[1] = test system: maximum electroshock seizure (MES) model; test: Maximum electroshock seizure (MES) model test; type: in vivo, mice; conditions: for responders at 50 mg/kg / responders at 100 mg/kg: Mus musculus, po, 1 h, Slc: ddY male mice, 3 per group, electrical stimulation 1 hour after administration, inhibition of hind limb extension, read-out: MES (positive number/tested number) (converted); for responders at 50 mg/kg: 50 mg/kg oral; for responders at 100 mg/kg: 100 mg/kg oral
Source text: In order to evaluate the antiepileptic activity of each drug, maximum electroshock seizure (MES) model, subcutaneously pentetrazol-injected model (scPTZ), and amygdala kindling model in rats were used because they show a good clinical prediction.
Test 1: Test with Maximum Electroshock Seizure (MES) Model
Test 1 evaluates the anticonvulsant action of medicaments. Animal model used herein represents the clinical phenotypes of generalized tonic seizure and secondarily generalized tonic-clonic seizure. Test compounds (50 or 100 mg/kg) were orally administered to Slc: ddY male mice (3 mice in each group, body weight 20-30 g). After an hour of administration, their corneas were electrically stimulated (60 Hz, 25 mA, 0.2 second) to induce tonic convulsion (tonic extensor in their hind limbs). […] To the control mice, 0.5% tragacanth solution or 0.5% methylcellulose solution was administered.

[2] = test system: subcutaneously pentetrazol-injected model (scPTZ); test: Subcutaneously pentetrazol-injected model (scPTZ) test; type: in vivo, mice; conditions: pentetrazol 85 mg/kg s.c. after 1 hour; for responders at 100 mg/kg / responders at 50 mg/kg: Mus musculus, po, 1 h, Slc: ddY male mice, 3 per group, observed 30 minutes for clonic convulsion, read-out: scPTZ (positive number/tested number) (converted); for responders at 100 mg/kg: 100 mg/kg oral; for responders at 50 mg/kg: 50 mg/kg oral
Source text: In order to evaluate the antiepileptic activity of each drug, maximum electroshock seizure (MES) model, subcutaneously pentetrazol-injected model (scPTZ), and amygdala kindling model in rats were used because they show a good clinical prediction. […] Test with Subcutaneously Pentetrazol-Injected Model (scPTZ) Similar to Test 1, Test 2 evaluates the anticonvulsant action of medicaments. However, unlike Test 1, animal model used herein represents the clinical phenotypes of generalized absence seizure and myoclonic seizure. Test compounds (50 or 100 mg/kg) were orally administered to Slc: ddY male mice (3 mice in each group, body weight 20-30 g). After an hour, pentetrazol (85 mg/kg) was subcutaneously administered. […] To the control mice, 0.5% tragacanth solution or 0.5% methylcellulose solution was administered.

SMILES	responders at 50 mg/kg [1] [%]	responders at 100 mg/kg [1] [%]	responders at 100 mg/kg [2] [%]	anticonvulsant action in maximum electroshock seizure (MES) model test ([1]; mice, oral 50 or 100 mg/kg, 1 hour after administration)	responders at 50 mg/kg [2] [%]	anticonvulsant action in subcutaneously pentetrazol-injected model (scPTZ) test ([2]; mice, oral 50 or 100 mg/kg)
CNC(=O)Cc1ccccc1-c1cccc(Cl)c1 [Example 14]	0	100	0			
CN(C)C(=O)Cc1ccccc1-c1cccc(Cl)c1 [Example 15]	0	66.7	0			
CNC(=O)Cc1ccccc1-c1ccccc1Cl [Example 17]		0	33.3			
CCNC(=O)Cc1ccccc1-c1ccccc1Cl [Example 18]	0	100	33.3			
NC(=O)Cc1ccccc1-c1cccc(Cl)c1Cl [Example 19]	33.3	66.7	0			
NC(=O)Cc1ccccc1-c1cccc(F)c1F [Example 20, 2-(2′,3′-difluorobiphenyl-2-yl)acetamide]	66.7	100	66.7	anticonvulsant action was observed	66.7	anticonvulsant action was observed
NC(=O)Cc1ccccc1-c1ccc(F)c(F)c1 [Example 21, 2-(3′,4′-difluorobiphenyl-2-yl)acetamide]	33.3	100	100		0	
NC(=O)Cc1ccccc1-c1ccc(F)cc1 [Example 22, 2-(4′-fluorobiphenyl-2-yl)acetamide]	66.7	100	33.3			
CNC(=O)Cc1ccccc1-c1ccc(F)cc1 [Example 23, 2-(4′-fluorobiphenyl-2-yl)-N-methylacetamide]	100	100	33.3			
CN(C)C(=O)Cc1ccccc1-c1ccc(F)cc1 [Example 24]	33.3	100	0			
CNC(=O)Cc1ccccc1-c1cccc(F)c1 [Example 26, 2-(3′-fluorobiphenyl-2-yl)-N-methylacetamide]	100	100	0			
CCNC(=O)Cc1ccccc1-c1cccc(F)c1 [Example 27]	0	100	33.3			
CNC(=O)Cc1ccccc1-c1ccccc1F [Example 28, 2-(2′-fluorobiphenyl-2-yl)-N-methylacetamide]	0	100	66.7		0	
CCNC(=O)Cc1ccccc1-c1ccccc1F [Example 29]	0	66.7	33.3			
CN(C)C(=O)Cc1ccccc1-c1ccccc1F [Example 30, 2-(2′-fluorobiphenyl-2-yl)-N,N-dimethylacetamide]	0	100	66.7		33.3	
CNC(=O)Cc1ccccc1-c1cccc(C)c1 [Example 31, N-methyl-2-(3′-methylbiphenyl-2-yl)-acetamide]		0	66.7		33.3	
NC(=O)Cc1ccc(C(F)(F)F)cc1-c1ccccc1 [Example 32]	33.3	100	0			
CNC(=O)Cc1ccc(C(F)(F)F)cc1-c1ccccc1 [Example 33]	33.3	66.7	33.3			

SMILES	responders at 50 mg/kg [1] [%]	responders at 100 mg/kg [1] [%]	responders at 100 mg/kg [2] [%]	anticonvulsant action in maximum electroshock seizure (MES) model test ([1]; mice, oral 50 or 100 mg/kg, 1 hour after administration)	responders at 50 mg/kg [2] [%]	anticonvulsant action in subcutaneously pentetrazol-injected model (scPTZ) test ([2]; mice, oral 50 or 100 mg/kg)
NC(=O)Cc1cc(OC(F)(F)F)ccc1-c1ccccc1 [Example 34]		0	66.7		33.3	
NC(=O)Cc1cc(Cl)ccc1-c1ccccc1 [Example 35]	0	66.7	0			
CNC(=O)Cc1cc(Cl)ccc1-c1ccccc1 [Example 36]	0	100	33.3			
CCNC(=O)Cc1cc(Cl)ccc1-c1ccccc1 [Example 37]		0	33.3			
CN(C)C(=O)Cc1cc(Cl)ccc1-c1ccccc1F [Example 38]		0	100		0	
CNC(=O)Cc1ccc(F)cc1-c1ccccc1 [Example 40]	33.3	100	0			
CNC(=O)Cc1ccc(F)cc1-c1ccccc1F [Example 42]		33.3	66.7		33.3	
NC(=O)Cc1ccc(F)cc1-c1cccc(Cl)c1 [Example 43]	66.7	66.7	66.7		33.3	
NC(=O)Cc1cc(F)ccc1-c1ccccc1 [Example 44, 2-(4-fluorobiphenyl-2-yl)acetamide]	100	100	0			
CNC(=O)Cc1cc(F)ccc1-c1ccccc1 [Example 45, 2-(4-fluorobiphenyl-2-yl)-N-methylacetamide]	100	100	0			
CNC(=O)Cc1cc(F)ccc1-c1ccccc1F [Example 47, 2-(2′,4-difluorobiphenyl-2-yl)-N-methylacetamide]	100	100	0			
NC(=O)Cc1cc(F)ccc1-c1cccc(Cl)c1 [Example 48, 2-(3′-chloro-4-fluorobiphenyl-2-yl)acetamide]	33.3	100	100		33.3	
NC(=O)Cc1ccccc1-c1ccc(Br)cc1 [Example 49, 2-(4′-Bromobiphenyl-2-yl)acetamide]	0	66.7	66.7		0	
NC(=O)Cc1ccccc1-c1ccc(C(F)(F)F)cc1 [Example 51]	0	100	33.3			
CNC(=O)Cc1ccccc1-c1ccc(Br)cc1 [Example 53, 2-(4′-Bromobiphenyl-2-yl)-N-methylacetamide]	66.7	100	0			
CNC(=O)Cc1ccccc1-c1ccccc1 [Example 54, 2-(biphenyl-2-yl)-N-methylacetamide]	100	100	33.3			
CNC(=O)Cc1ccccc1-c1cccc(Br)c1 [Example 55]	0	100	0			
CC(C(N)=O)c1ccccc1-c1ccccc1 (centres unmarked) [Example 56, 2-(Biphenyl-2-yl)propanamide]	0	100	66.7		100	
